pKi: −log10 of the molar value.

The assay deals with Aldo-keto reductase family 1 member A1 (Bos taurus, UniProt Q3ZCJ2). The assay is described as follows: Inhibition of beef brain NADP-dependent aldehyde reductase using p-nitrobenzaldehyde by competitive inhibition assay.
Aldo-keto reductase family 1 member A1, sequence (Q3ZCJ2 2-325 limits assumed): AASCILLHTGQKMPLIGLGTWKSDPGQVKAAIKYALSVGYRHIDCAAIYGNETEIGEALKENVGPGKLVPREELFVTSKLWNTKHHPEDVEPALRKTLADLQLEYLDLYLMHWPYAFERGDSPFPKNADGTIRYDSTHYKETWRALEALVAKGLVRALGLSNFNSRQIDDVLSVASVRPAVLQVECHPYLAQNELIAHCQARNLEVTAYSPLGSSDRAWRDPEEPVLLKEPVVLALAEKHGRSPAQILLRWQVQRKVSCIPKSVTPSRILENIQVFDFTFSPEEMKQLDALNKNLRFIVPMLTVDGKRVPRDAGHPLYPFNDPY
As a reminder, the pKi is −log10 of the Ki, conventionally taken in molar units. Read a low pKi as a high Ki. Turning to `CCC1C(O)NC(=O)C2=CN([C@@H]3O[C@H](COP(=O)(O)O[C@H]4[C@@H](O)[C@H](n5cnc6c(N)ncnc65)O[C@@H]4COP(=O)(O)OP(=O)(O)O)[C@@H](O)[C@H]3O)C=C[C@H]21` (some centres undefined), the pKi was 4.89. In turn, `Nc1ncnc2c1ncn2[C@@H]1O[C@H](COP(=O)(O)OP(=O)(O)O)[C@@H](OP(=O)(O)OC[C@H]2O[C@@H](N3C=C[C@@H]4C(=C3)C(=O)NC(O)C4Cc3ccccc3)[C@H](O)[C@@H]2O)[C@H]1O` (some centres undefined) showed a pKi of 5.15. The value for `CCCCCCCCC1C(O)NC(=O)C2=CN([C@@H]3O[C@H](COP(=O)(O)O[C@H]4[C@@H](O)[C@H](n5cnc6c(N)ncnc65)O[C@@H]4COP(=O)(O)OP(=O)(O)O)[C@@H](O)[C@H]3O)C=C[C@H]21` (some centres undefined) was 5.64; that for `Nc1ncnc2c1ncn2[C@@H]1O[C@H](COP(=O)(O)OP(=O)(O)O)[C@@H](OP(=O)(O)OC[C@H]2O[C@@H](N3C=C[C@@H]4C(=C3)C(=O)NC(O)C4c3ccccc3)[C@H](O)[C@@H]2O)[C@H]1O` (some centres undefined) was 5.29.

The values above are taken from ChEMBL document CHEMBL3244329, “Nicotinamide adenine dinucleotide phosphate-decanaldehyde adduct as an inhibitor of beef brain NADP-linked aldehyde reductase” (J Med Chem, 1979).
